Experimental data from patent publication US20240336571A1, “NOVEL CYCLOPROPYL COMPOUNDS” (ICAGEN, LLC, priority 2021, published 2024).

Molecular target: human Kv7.2 (Homo sapiens (Human), UniProt O43526)
Experiment: SyncroPatch 384 electrophysiology, activation of Kv7.2 in CHO cells
Type: cell-based
Conditions: for EC50: CHO cells stably expressing human Kv7.2, potassium current at -90 mV repolarizing step, in presence of zinc pyrithione; for Emax: CHO, Kv7.2 activation max %, relative to 30 μM ML-213 max activation
Experimental: The potency of Kv7 potentiators was determined using the SyncroPatch 384 (Nanion) high throughput electrophysiology platform.
CHO cells stably expressing either human Kv7.2, Kv7.4 or Kv7.5/7.3 under a constitutive CMV promoter were used for these studies. Cells were maintained in F12 Hams+1 mM L-glutamine (Hyclone) supplemented with 10% FBS (Sigma), 0.3×NEAA (Non-essential Gamino-acids) and 400 ug/ml G418 at 37° C. in 5% CO2. Cells were cultured in T-225 flasks (Nunc) for 2-3 days to reach 85-95% confluence prior to electrophysiological recording.
Earle's balanced salt solution (in mM): 135 NaCl, 5.4 KCl, 5 Glucose, 2 CaCl2, 1 MgCl2, 5 HEPES, pH 7.4. Seal enhancer solution (in mM): 90 NaCl, 3 KCl, 35 CaCl2, 10 MgCl2, 10 HEPES, pH 7.4. Extracellular recording solution (in mM): 71 NaCl, 70 NMDG, 13 KCl, 5 Glucose, 2 CaCl2, 1 MgCl2, 10 HEPES, pH 7.4. Intracellular recording solution (in mM): 130 KF, 20 KCl, 4 EGTA, 10 HEPES, 2 EDTA, 0.01 Escin, pH 7.2.
Cells were harvested for electrophysiological recording upon reaching appropriate confluence. Cells were first washed in DPBS (Hyclone, Cat #SH30028.03) and then 2 ml of Accutase (MP Biomedicals #1000449) was added at 28° C. until ˜90% of cells were suspended. F12 HAM's media+1 mM L-glutamine (Hyclone, SH30026.02) was then added to the flask to dilute the accutase. Cells were then triturated until a single cell suspension was achieved, a cell count was performed, and cells were centrifuged for 2 min. at 1,000 rpm. Media was then aspirated, and cells were resuspended in Earle's balanced salt solution to a concentration of 0.75×10^6 cells/ml and allowed to recover for 25 min at 10° C.
At the beginning of each assay, 20 μl of cell suspension was dispensed into each well of a multi-hole 384-well SyncroPatch chip by the onboard pipettor. Cell sealing was initiated, and seal enhancer solution was added to facilitate seal formation. Upon completion of sealing, cells were washed 3 times with extracellular recording solution and the assay voltage protocol was started. Human Kv7.2, Kv7.4 or Kv7.5/7.3 channels were evaluated using a voltage protocol in which cells were voltage-clamped at a holding potential of −60 mV. Potassium currents were continuously activated with a series of three voltage steps to −30 mV for 3 seconds, 40 mV for 1 second and −90 mV for 4 seconds with 12 seconds between successive voltage sweeps. Potassium currents were measured from the −90 mV repolarizing step. Baseline current was assessed for 3.5 minutes prior to the addition of 5.6 μM zinc pyrithione (1 μM for Kv7.4). Kv7.2, Kv7.4 or Kv7.5/7.3 current in the presence of zinc pyrithione was acquired over five minutes to allow channels to reach steady state activity prior to addition of test agents. Channel activity was monitored for three minutes preceding the addition of 30 μM ML-213 (3 minutes) to achieve maximum activation. 150 mM TEA with 10 μM XE-991 was applied for 2 minutes to measure the leak current during maximum inhibition of Kv7.2, Kv7.4 or Kv7.5/7.3 channels.
Data were collected on the SyncroPatch platform using PatchControl software (Nanion) and processed and analyzed using DataControl Software (Nanion). Percent activation was calculated from potassium current as follows: The average current for the 5 sweeps in the presence of zinc pyrithione immediately preceding test agent addition was taken as the ‘control’ data. Likewise, the average potassium current in the presence of test agents 5 sweeps immediately preceding addition of 30 μM ML-213 was determined for ‘drug’ data. The average potassium current 5 sweeps immediately prior to addition of 150 mM TEA+10 μM XE-991 was determined for ‘max activation’ data while average currents from 5 sweeps immediately following addition of TEA was determined for ‘max inhibition’ data. Percent activation for each of the 384-wells of a sealchip was calculated as ((‘drug’−‘max inhibition’)/(‘max activation’−‘max inhibition’))*100 with Pipeline Pilot (Accelrys). […]

Compound: O=C(NCc1ccnc(OCC(F)F)c1)N[C@@H]1C[C@H]1c1ccccc1 [Example 35, 1-[[2-(2,2-difluoroethoxy)pyridin-4-yl]methyl]-3-[(1R,2S)-2-phenylcyclopropyl]urea]
- EC50: 200 nM
- Emax: 66%

Compound: O=C(NCc1ccnc(-n2ccnc2)c1)N[C@@H]1C[C@H]1c1ccccc1 [Example 27, 1-[(2-imidazol-1-ylpyridin-4-yl)methyl]-3-[(1R,2S)-2-phenylcyclopropyl]urea]
- EC50: 2840 nM
- Emax: 45%

Compound: O=C(NCc1ccnc(OC(F)F)n1)N[C@@H]1C[C@H]1C(F)(F)F [Example 49, 1-[[2-(difluoromethoxy)pyrimidin-4-yl]methyl]-3-[(1R,2R)-2-(trifluoromethyl)cyclopropyl]urea]
- EC50: 3830 nM
- Emax: 42%

Compound: C[C@@H]1C[C@H]1NC(=O)NCc1ccnc(OC(F)F)c1 (racemic) [Example 46, 1-[[2-(difluoromethoxy)pyridin-4-yl]methyl]-3-[rac-(1R,2R)-2-methylcyclopropyl]urea]
- EC50: 900 nM
- Emax: 51%

Compound: O=C(NCc1ccnc(OC2CCOCC2)c1)NC1CC1C1CCCCC1 (stereo not shown) [Example 45, 1-(2-cyclohexylcyclopropyl)-3-[[2-(oxan-4-yloxy)pyridin-4-yl]methyl]urea]
- EC50: 880 nM
- Emax: 77%

Compound: COc1cc([C@H](C)NC(=O)N[C@@H]2C[C@H]2c2ccccc2)ccn1 [Example 29, 1-[(1S)-1-(2-methoxypyridin-4-yl)ethyl]-3-[(1R,2S)-2-phenylcyclopropyl]urea]
- EC50: 520 nM
- Emax: 47%

Compound: O=C(NCc1ccnc(Oc2ccccc2)c1)N[C@@H]1C[C@H]1c1ccccc1 [Example 34, 1-[(2-phenoxypyridin-4-yl)methyl]-3-[(1R,2S)-2-phenylcyclopropyl]urea]
- EC50: 4780 nM
- Emax: 62%

Compound: O=C(NCc1cccc(Cl)n1)N[C@@H]1C[C@H]1C1CCCCC1 (racemic) [Example 3, 1-[(6-chloropyridin-2-yl)methyl]-3-[rac-(1R,2S)-2-cyclohexylcyclopropyl]urea]
- EC50: 1540 nM
- Emax: 77%

Compound: CC(C)Oc1cc(CNC(=O)N[C@@H]2C[C@H]2c2ccccc2)ccn1 [Example 6, 1-[(1R,2S)-2-phenylcyclopropyl]-3-[(2-propan-2-yloxypyridin-4-yl)methyl]urea]
- EC50: 660 nM
- Emax: 64%

Compound: O=C(NCc1ccnc(-n2cnc(C(F)(F)F)c2)c1)N[C@@H]1C[C@H]1c1ccccc1 [Example 31, 1-[(1R,2S)-2-phenylcyclopropyl]-3-[[2-[4-(trifluoromethyl)imidazol-1-yl]pyridin-4-yl]methyl]urea]
- EC50: 500 nM
- Emax: 44%

Compound: O=C(NCc1ccnc(OCF)c1)N[C@@H]1C[C@H]1c1ccccc1 [Example 37]
- EC50: 910 nM
- Emax: 74%

Compound: N#Cc1cc(CNC(=O)N[C@@H]2C[C@H]2c2ccccc2)ccn1 (racemic) [Example 8, 1-[(2-cyanopyridin-4-yl)methyl]-3-[rac-(1R,2S)-2-phenylcyclopropyl]urea]
- EC50: 4180 nM
- Emax: 40%

Compound: C[C@H](NC(=O)N[C@@H]1C[C@H]1c1ccccc1)c1ccnc(-n2cnc(C(F)(F)F)c2)c1 [Example 33, 1-[(1R,2S)-2-phenylcyclopropyl]-3-[(1S)-1-[2-[4-(trifluoromethyl)imidazol-1-yl]pyridin-4-yl]ethyl]urea]
- EC50: 310 nM
- Emax: 40%

Compound: O=C(NCc1ccnc(Cl)c1)N[C@@H]1C[C@H]1c1ccccc1 [Example 19, 1-[(2-chloropyridin-4-yl)methyl]-3-[(1R,2S)-2-phenylcyclopropyl]urea]
- EC50: 6830 nM
- Emax: 60%

Compound: O=C(NCc1ccnc(OC2CCC2)c1)N[C@@H]1C[C@H]1c1ccccc1 [Example 25, 1-[(2-cyclobutyloxypyridin-4-yl)methyl]-3-[(1R,2S)-2-phenylcyclopropyl]urea]
- EC50: 1050 nM
- Emax: 60%

Compound: O=C(NCc1ccnc(C2COC2)c1)N[C@@H]1C[C@H]1c1ccccc1 [Example 32]
- EC50: 3020 nM
- Emax: 40%

Compound: C[C@@]1(NC(=O)NCc2ccnc(OC(F)F)c2)C[C@H]1c1ccccc1 (racemic) [Example 36, 1-[[2-(difluoromethoxy)pyridin-4-yl]methyl]-3-[rac-(1R,2S)-1-methyl-2-phenylcyclopropyl]urea]
- EC50: 120 nM
- Emax: 69%

Compound: O=C(NCc1ccnc(-n2cccn2)c1)N[C@@H]1C[C@H]1c1ccccc1 (racemic) [Example 12, 1-[(2-pyrazol-1-ylpyridin-4-yl)methyl]-3-[rac-(1R,2S)-2-phenylcyclopropyl]urea]
- EC50: 670 nM
- Emax: 69%

Compound: O=C(NCc1cc(OCC(F)(F)F)ncn1)N[C@@H]1C[C@H]1C(F)(F)F (racemic) [Example 51, 1-[rac-(1R,2R)-2-(trifluoromethyl)cyclopropyl]-3-[[6-(2,2,2-trifluoroethoxy)pyrimidin-4-yl]methyl]urea]
- EC50: 280 nM
- Emax: 52%

Compound: O=C(NCc1ccnc(OCC(F)CF)c1)N[C@@H]1C[C@H]1c1ccccc1 (stereo partly drawn) [Example 48, 1-[[2-(2,3-difluoropropoxy)pyridin-4-yl]methyl]-3-[(1R,2S)-2-phenylcyclopropyl]urea]
- EC50: 570 nM
- Emax: 70%

Compound: O=C(NCc1ccnc(OC2COC2)c1)N[C@@H]1C[C@H]1c1ccccc1 [Example 16]
- EC50: 960 nM
- Emax: 57%

Compound: O=C(NCc1ccnc(-n2cccn2)c1)N[C@@H]1C[C@H]1C1CCCCC1 (racemic) [Example 2, 1-[rac-(1R,2S)-2-cyclohexylcyclopropyl]-3-[(2-pyrazol-1-ylpyridin-4-yl)methyl]urea]
- EC50: 570 nM
- Emax: 84%

Compound: COC[C@@H](Oc1cc(CNC(=O)N[C@@H]2C[C@H]2C(F)(F)F)ccn1)C(F)(F)F (mixture of isomers) [Example 53, 1-[[2-[(2R)-1,1,1-trifluoro-3-methoxypropan-2-yl]oxypyridin-4-yl]methyl]-3-[rac-(1R,2R)-2-(trifluoromethyl)cyclopropyl]urea]
- EC50: 360 nM
- Emax: 69%

Compound: N#Cc1cc(CNC(=O)N[C@@H]2C[C@H]2c2ccccc2)ccn1 [Example 10, 1-[(2-cyanopyridin-4-yl)methyl]-3-[(1R,2S)-2-phenylcyclopropyl]urea]
- EC50: 1190 nM
- Emax: 43%

Compound: O=C(NCc1ccnc(-n2cccn2)c1)N[C@@H]1C[C@H]1c1ccccc1 [Example 13, 1-[(1R,2S)-2-phenylcyclopropyl]-3-[(2-pyrazol-1-ylpyridin-4-yl)methyl]urea]
- EC50: 1340 nM
- Emax: 74%

Compound: O=C(NCc1ccnc(OCC(F)(F)F)c1)N[C@@H]1C[C@H]1c1ccccc1 [Example 14, 1-[(1R,2S)-2-phenylcyclopropyl]-3-[[2-(2,2,2-trifluoroethoxy)pyridin-4-yl]methyl]urea]
- EC50: 70 nM
- Emax: 71%
